From patent US20200345013A1, “ANTI-ADHERENT BOTANICAL COMPOSITIONS” (priority 2014, published 2020) come the findings set out here.

Assay [1] concerns Staphylococcus aureus CICC 10384 (ATCC 6538P). The assay is described as follows: Screening anti-adhesion effect on porcine skin, S. aureus. The format is cell-based. The method, then:
Preparation of Bacterial Cell Suspensions • 1. Klebsiella pneumonia CICC 21519 (ATCC 4352) and Staphylococcus aureus CICC 10384 (ATCC 6538P) were purchased from China Center of Industrial Culture Collection. • 2. Stock culture of each species was streaked onto TSA plate (OXOID, […], England) and incubated at 37° C. overnight. • 3. Single colonies were subcultured in TSB (OXOID, […], England) and incubated 37° C., 200 rpm overnight. • 4. Dilutions of overnight cultures in PBS buffer were used for the screening.
Screening the Anti-Adhesion Effect of Botanicals/Compounds on Porcine Skin • 1. Porcine skins were aseptically cut to squares of 2×2 cm, and each was placed in a sterile Petri dish (CITOTEST LABWARE MANUFACTURING CO., LTD, Haimen, Jiangsu). • 2. Aliquots (100 μL) of botanical/compounds suspensions were applied to porcine skins, three replicates. • 3. Skins were allowed to air dry for 2 hours at ˜50% relative humidity. • 4. Inocula (100 μL) were applied to the porcine skin, and incubated at 37° C. for 2 hours. • 5. […] After incubation, colonies on plates were counted. Reduction (%) of colony forming unit (CFU) from the average counts on untreated skin was calculated. • 9. […] After incubation, plaques on plates were counted. • d. Reduction (%) of plaque forming unit (PFU) from the average counts on untreated skin was calculated.

In assay [2] the test system is Klebsiella pneumonia CICC 21519 (ATCC 4352). The assay is described as follows: Screening anti-adhesion effect on porcine skin, K. pneumoniae. It is filed as cell-based, Klebsiella pneumoniae. As to conditions: two-hour adhesion time, Table 2.
Protocol: Klebsiella pneumonia CICC 21519 (ATCC 4352) and Staphylococcus aureus CICC 10384 (ATCC 6538P) were purchased from China Center of Industrial Culture Collection. • 2. […] Dilutions of overnight cultures in PBS buffer were used for the screening.
Aliquots (100 μL) of botanical/compounds suspensions were applied to porcine skins, three replicates. • 3. Skins were allowed to air dry for 2 hours at ˜50% relative humidity. • 4. Inocula (100 μL) were applied to the porcine skin, and incubated at 37° C. for 2 hours. • 5. The skins were washed three times by applying 5 ml of PBS+0.01% Tween 80 onto the skins and then removing the liquid by pipetting. • 6. […] Microbial cells were enumerated by spread plate method. • a. […] For S. aureus and K. pneumoniae, the suspension and dilutions were plated onto TSA, and incubated at 37° C. for 1 day. • 8. After incubation, colonies on plates were counted. Reduction (%) of colony forming unit (CFU) from the average counts on untreated skin was calculated. • 9.
The next assay has as its system C. albicans SC5314. The experiment in a line: Screening anti-adhesion effect on porcine skin, C. albicans. The format is cell-based, Candida albicans. As to conditions: agent 5% in water, 2 h adhesion, average +/- SD, n = 2, positive = anti-adherent. The method, then:
Preparation of C. albicans Cell Suspension • 1. Single cell suspension of C. albicans SC5314 was prepared as follows. Stock culture of C. albicans SC5314 was streaked onto YPD agar (YPDA) and incubated at 30° C. overnight. • 2. Single colonies were subcultured in YPD broth (YPDB) and incubated 30° C., 200 rpm overnight. • 3. Overnight culture in YPDB was subcultured in YPD broth again and incubated 30° C., 200 rpm for 48 hours. • 4. Cells were collected by centrifugation (4000×g, 10 minutes) at 4° C., washed three times with sterile water, and then resuspended in sterile water a final concentration of 10^9 CFU/mL. • 5. The suspension were stored at 4° C. at least 1 day, then subcultured into YPDB to a final concentration of 10^6 CFU/mL. • 6. After 48 hours incubation, cell suspension was examined under microscope for single cell percentage. • 7. […]
Screening the Anti-Adhesion Effect of Botanicals/Compounds on Porcine Skin • 1. […] After incubation, colonies on plates were counted. Reduction (%) of colony forming unit (CFU) from the average counts on untreated skin was calculated. • 9. […] After incubation, plaques on plates were counted. • d. Reduction (%) of plaque forming unit (PFU) from the average counts on untreated skin was calculated.

The subject of a further assay is S. aureus. The experiment in a line: High Throughput Anti-adherent Test, polystyrene, one-hour adhesion, S. aureus. As to conditions: agent 5% in water; percentage of microbes that remain attached to treated polystyrene; low = stronger anti-adherent effect; average +/- SD, n = 2. It is filed as cell-based, Staphylococcus aureus. The text has this: (§1) The botanical extracts listed in Table 3 were initially screened for their effect against microbial adhesion using the High Throughput Anti-adherent Test Method described below. The effect of the botanical filtrates as the percentage of control-corrected A490 is shown. For bacterial strains, the corrected A490 were all less than 20% of the untreated control. For C. albicans, the corrected A490 of the botanical filtrates were less than 70% of the untreated control. The lower percentage value indicates a stronger inhibitory effect.
(§2) II. High Throughput Anti-Adherence Test Method
(§3) This test method specifies the operational parameters required to grow and or prevent the formation of bacterial attachment using a high throughput screening assay. The assay device consists of a plastic lid with ninety-six (96) pegs and a corresponding receiver plate with ninety-six (96) individual wells that have a maximum 200 μL working volume. Biofilm is established on the pegs under static batch conditions (i.e., no flow of nutrients into or out of an individual well). • 1. […]

The subject of a further assay is K. pneumoniae. The experiment in a line: High Throughput Anti-adherent Test, polystyrene, one-hour adhesion, K. pneumoniae. It is filed as cell-based, Klebsiella pneumoniae. As to conditions: agent 5% in water; percentage of microbes that remain attached to treated polystyrene; low = stronger anti-adherent effect; average +/- SD, n = 2.
Excerpt: as §1, §2, §3

The test system of another assay is C. albicans. The assay is described as follows: High Throughput Anti-adherent Test, polystyrene, one-hour adhesion, C. albicans. The format is cell-based, Candida albicans. As to conditions: agent 5% in water; percentage of microbes that remain attached to treated polystyrene; low = stronger anti-adherent effect; bracketed = adherent effect; * = single measurement, else n = 2.
Excerpt: as §1, §2, §3

Take `Oc1ccc(C=Cc2cc(O)cc(O)c2)cc1` [Resveratrol]: in assay [1] (agent 5% in water, 2 h adhesion, average +/- SD, n = 2, positive = anti-adherent), the “Reduction of Adherent Cells (%) from Porcine Skin Control (Two-Hour Adhesion Time), S. aureus” value is −4.2 ± 19.1%. Also, in assay [1] (two-hour adhesion time, Table 2), the “Anti-adherence on porcine skin in words, S. aureus” value is “failed to demonstrate anti-adherence”. For the same compound, in assay [2], the “Anti-adherence on porcine skin in words, K. pneumonia” value is recorded as “failed to demonstrate anti-adherence”. The “Reduction of Adherent Cells (%) from Porcine Skin Control (Two-Hour Adhesion Time), C. albicans” value with C. albicans SC5314 is on record as 29.8 ± 11.2%. Further, in the assay with S. aureus, the “Reduction of Adherent Cells (%) from Polystyrene Control (One-Hour Adhesion Time), S. aureus” value was 8.0 ± 9.9%. Also, in the assay with K. pneumoniae, the “Reduction of Adherent Cells (%) from Polystyrene Control (One-Hour Adhesion Time), K. pneumoniae” value is 7.0 ± 2.8%. Moreover, in the assay with C. albicans, the “Reduction of Adherent Cells (%) from Polystyrene Control (One-Hour Adhesion Time), C. albicans” value came to 25.5 ± 4.9%.
